Assay results as given in patent US12421232B2, “Kinase inhibitor compounds and compositions and methods of use” (ICAHN SCHOOL OF MEDICINE AT MOUNT SINAI, priority 2018, dated 2025).
Where a chain is given by its changes, count along the chain named. Read-outs that look alike come from different tables or passages of the source.

Assays:
Test in all cases: KINOMEscan Assay (DiscoverX)
Assay type in all cases: binding
Conditions in all cases: read-out: % DMSO Ctrl
CSNK2A1 = molecular target: T1, CSNK2A1 (Homo sapiens, UniProt P68400)
T1 construct: purchased DiscoverX
T1 sequence (P68400 whole entry): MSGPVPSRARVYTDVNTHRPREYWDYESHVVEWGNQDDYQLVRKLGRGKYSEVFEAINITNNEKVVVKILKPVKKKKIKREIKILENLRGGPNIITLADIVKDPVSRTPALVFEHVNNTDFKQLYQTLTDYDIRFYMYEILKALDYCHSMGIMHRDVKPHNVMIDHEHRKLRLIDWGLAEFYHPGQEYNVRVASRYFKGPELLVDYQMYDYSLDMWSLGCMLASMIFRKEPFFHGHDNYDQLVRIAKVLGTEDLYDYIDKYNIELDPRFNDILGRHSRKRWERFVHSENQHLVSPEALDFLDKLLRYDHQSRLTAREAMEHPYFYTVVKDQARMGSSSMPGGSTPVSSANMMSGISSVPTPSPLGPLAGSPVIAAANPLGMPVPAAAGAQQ

CAMK2A = molecular target: T2, CAMK2A (Homo sapiens, UniProt Q9UQM7)
T2 construct: purchased DiscoverX
T2 sequence (Q9UQM7 whole entry): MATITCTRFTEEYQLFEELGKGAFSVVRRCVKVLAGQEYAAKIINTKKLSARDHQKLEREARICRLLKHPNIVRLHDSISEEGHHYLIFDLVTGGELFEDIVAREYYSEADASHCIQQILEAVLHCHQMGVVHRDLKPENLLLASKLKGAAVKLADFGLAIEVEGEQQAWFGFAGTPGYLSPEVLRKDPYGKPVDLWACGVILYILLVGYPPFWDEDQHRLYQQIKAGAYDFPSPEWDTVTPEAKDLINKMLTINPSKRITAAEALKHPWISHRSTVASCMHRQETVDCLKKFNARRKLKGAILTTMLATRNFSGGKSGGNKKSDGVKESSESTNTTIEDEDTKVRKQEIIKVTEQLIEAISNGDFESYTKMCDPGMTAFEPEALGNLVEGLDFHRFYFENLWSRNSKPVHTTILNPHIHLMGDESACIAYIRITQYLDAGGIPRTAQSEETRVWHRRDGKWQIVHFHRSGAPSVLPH

FLT3(K663Q) = molecular target: T3, FLT3(K663Q) (Homo sapiens, UniProt P36888, K663Q)
T3 construct: purchased DiscoverX
T3 sequence (P36888 27-993 K663Q): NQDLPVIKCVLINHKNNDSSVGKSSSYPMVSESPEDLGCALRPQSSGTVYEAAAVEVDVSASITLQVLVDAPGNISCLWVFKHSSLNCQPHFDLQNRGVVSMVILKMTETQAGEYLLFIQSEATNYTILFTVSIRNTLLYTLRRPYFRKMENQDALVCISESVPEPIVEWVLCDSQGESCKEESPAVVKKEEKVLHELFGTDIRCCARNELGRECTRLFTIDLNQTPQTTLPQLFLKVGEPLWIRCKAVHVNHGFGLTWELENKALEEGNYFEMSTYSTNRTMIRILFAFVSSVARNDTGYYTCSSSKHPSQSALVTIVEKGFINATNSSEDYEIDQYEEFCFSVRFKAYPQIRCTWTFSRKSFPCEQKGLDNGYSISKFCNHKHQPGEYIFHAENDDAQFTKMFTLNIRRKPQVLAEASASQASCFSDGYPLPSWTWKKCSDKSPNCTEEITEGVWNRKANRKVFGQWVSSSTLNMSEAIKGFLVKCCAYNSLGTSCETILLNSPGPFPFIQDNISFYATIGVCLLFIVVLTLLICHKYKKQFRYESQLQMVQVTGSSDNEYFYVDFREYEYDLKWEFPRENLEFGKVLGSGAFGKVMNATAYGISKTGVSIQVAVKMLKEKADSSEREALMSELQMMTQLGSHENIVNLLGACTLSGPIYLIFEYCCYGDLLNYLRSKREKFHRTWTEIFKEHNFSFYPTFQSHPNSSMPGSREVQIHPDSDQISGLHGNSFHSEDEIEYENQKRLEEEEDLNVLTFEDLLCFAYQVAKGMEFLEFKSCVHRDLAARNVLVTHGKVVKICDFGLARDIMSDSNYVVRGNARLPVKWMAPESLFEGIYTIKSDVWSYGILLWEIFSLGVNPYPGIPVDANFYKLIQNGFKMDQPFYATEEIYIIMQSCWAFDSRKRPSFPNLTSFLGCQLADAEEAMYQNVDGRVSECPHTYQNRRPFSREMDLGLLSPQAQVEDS

FLT3(N841I) = molecular target: T4, FLT3(N841I) (Homo sapiens, UniProt P36888, N841I)
T4 construct: purchased DiscoverX
T4 sequence (P36888 27-993 N841I): T3 sequence (P36888 27-993 K663Q) with Q637K, N815I

TAOK3 = molecular target: T5, TAOK3 (Homo sapiens, UniProt Q9H2K8)
T5 construct: purchased DiscoverX
T5 sequence (Q9H2K8 1-898): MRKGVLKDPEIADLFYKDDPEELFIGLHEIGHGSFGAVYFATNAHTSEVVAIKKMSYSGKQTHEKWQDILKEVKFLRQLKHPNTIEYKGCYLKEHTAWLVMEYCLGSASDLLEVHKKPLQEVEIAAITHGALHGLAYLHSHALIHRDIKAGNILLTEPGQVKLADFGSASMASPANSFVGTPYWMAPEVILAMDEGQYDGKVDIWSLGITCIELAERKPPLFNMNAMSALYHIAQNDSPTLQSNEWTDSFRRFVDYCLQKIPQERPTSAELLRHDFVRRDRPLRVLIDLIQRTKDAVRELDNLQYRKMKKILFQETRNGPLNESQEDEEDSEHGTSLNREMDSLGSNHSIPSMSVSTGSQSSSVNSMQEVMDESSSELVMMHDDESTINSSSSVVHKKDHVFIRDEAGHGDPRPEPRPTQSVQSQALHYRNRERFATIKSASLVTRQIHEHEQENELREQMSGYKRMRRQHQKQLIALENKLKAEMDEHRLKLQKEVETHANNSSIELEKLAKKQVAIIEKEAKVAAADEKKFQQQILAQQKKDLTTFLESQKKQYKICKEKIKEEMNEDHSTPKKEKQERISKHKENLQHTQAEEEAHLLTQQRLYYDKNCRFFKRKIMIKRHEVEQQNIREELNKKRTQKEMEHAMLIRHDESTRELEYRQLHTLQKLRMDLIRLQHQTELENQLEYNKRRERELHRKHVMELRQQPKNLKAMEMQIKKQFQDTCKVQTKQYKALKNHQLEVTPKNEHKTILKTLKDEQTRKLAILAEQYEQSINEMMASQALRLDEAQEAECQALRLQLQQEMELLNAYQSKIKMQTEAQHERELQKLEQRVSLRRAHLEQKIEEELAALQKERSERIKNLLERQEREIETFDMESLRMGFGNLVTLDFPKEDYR

COc1ccc2c(c1)[nH]c1c(C)nccc12 [Harmine, reference compound]
remaining binding at 10 µM (CSNK2A1): 11%

C#CCn1c2cc(OC)ccc2c2ccnc(C)c21 [Compound 20-23a, 3-(7-Methoxy-1-methyl-β-carbolin-9-yl)-propan-1-yne]
remaining binding at 10 µM (CAMK2A): 13% | remaining binding at 10 µM (CSNK2A1; CSNK2A1, 10 μM): 46% | remaining binding at 10 µM (FLT3(K663Q)): 93% | remaining binding at 10 µM (FLT3(N841I)): 41% | remaining binding at 10 µM (TAOK3): 93%

COc1ccc2c3ccnc(C)c3n(CCCc3noc(N)n3)c2c1 [Compound 20-13, 3-(3-(7-Methoxy-1-methyl-β-carbolin-9-yl)propyl)-5-amino-1,2,4-oxadiazole]
remaining binding at 10 µM (CAMK2A): 72% | remaining binding at 10 µM (CSNK2A1): 49% | remaining binding at 10 µM (FLT3(K663Q)): 98% | remaining binding at 10 µM (FLT3(N841I)): 78% | remaining binding at 10 µM (TAOK3): 77%

COc1ccc2c(c1)[nH]c1c(C)nc(CO)cc12 [Compound 2-8, (1-Methyl-7-methoxy-9H-pyrido[3,4-b]indol-3-yl)methanol]
remaining binding at 10 µM (CAMK2A; CAMK2A, 10 μM): 53% | remaining binding at 10 µM (FLT3(K663Q); FLT3(K663Q) mutant, 10 μM): 100% | remaining binding at 10 µM (FLT3(N841I); FLT3(N841I) mutant, 10 μM): 74% | remaining binding at 10 µM (TAOK3; TAOK3, 10 μM): 70%
